Source: PubChem BioAssay AID2060492 (Molecular Pharmacology Branch, DTP, NCI, 2025)

Tested on: 695427-040-R-J1-PDC complex spheroids, viability percent T/C
Assay: Anticancer human tumor 695427-040-R-J1-PDC patient-derived colon adenocarcinoma cell line growth inhibition [GQUAD]
Settings: for IC50: curve of first compound; for viability, T/C: stronger effect = lower value; active = viability on the fitted dose curve at most 10% of control; inactive = the rest
Summary of the method: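 Viability of tumor cells grown as complex spheroids with endothelial and stromal cells, exposed to drug combinations. Top concentration at or near clinical Cmax (else 10 microM), diluted in half-log increments.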

[1] = second compound 0.0316 µM, first compound 0.0316 µM
[2] = second compound 0.0316 µM, first compound 0.1 µM
[3] = second compound 0.0316 µM, first compound 0.316 µM
[4] = second compound 0.0316 µM, first compound 1 µM
[5] = second compound 0.0316 µM, first compound 3.16 µM
[6] = second compound 0.0316 µM, first compound 10 µM
[7] = second compound 0.1 µM, first compound 0.0316 µM
[8] = second compound 0.1 µM, first compound 0.1 µM
[9] = second compound 0.1 µM, first compound 0.316 µM
[10] = second compound 0.1 µM, first compound 1 µM
[11] = second compound 0.1 µM, first compound 3.16 µM
[12] = second compound 0.1 µM, first compound 10 µM
[13] = second compound 0.316 µM, first compound 0.0316 µM
[14] = second compound 0.316 µM, first compound 0.1 µM
[15] = second compound 0.316 µM, first compound 0.316 µM
[16] = second compound 0.316 µM, first compound 1 µM
[17] = second compound 0.316 µM, first compound 3.16 µM
[18] = second compound 0.316 µM, first compound 10 µM
[19] = second compound 1 µM, first compound 0.0316 µM
[20] = second compound 1 µM, first compound 0.1 µM
[21] = second compound 1 µM, first compound 0.316 µM
[22] = second compound 1 µM, first compound 1 µM
[23] = second compound 1 µM, first compound 3.16 µM
[24] = second compound 1 µM, first compound 10 µM
[25] = second compound 3.16 µM, first compound 0.0316 µM
[26] = second compound 3.16 µM, first compound 0.1 µM
[27] = second compound 3.16 µM, first compound 0.316 µM
[28] = second compound 3.16 µM, first compound 1 µM
[29] = second compound 3.16 µM, first compound 3.16 µM
[30] = second compound 3.16 µM, first compound 10 µM
[31] = second compound 10 µM, first compound 0.0316 µM
[32] = second compound 10 µM, first compound 0.1 µM
[33] = second compound 10 µM, first compound 0.316 µM
[34] = second compound 10 µM, first compound 1 µM
[35] = second compound 10 µM, first compound 3.16 µM
[36] = second compound 10 µM, first compound 10 µM
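Note: spheroids exposed to compounds for seven days before readout.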

C#Cc1c(F)ccc2cc(O)cc(-c3ncc4c(N5CC6CCC(C5)N6)nc(OCC56CCCN5CC(F)C6)nc4c3F)c12 (stereo not given) + CN(C)c1ccc(Nc2c3ccc(NC(=O)CCN4CCCC4)cc3nc3cc(NC(=O)CCN4CCCC4)ccc23)cc1
inactive: viability, T/C [1] 101% | viability, T/C [2] 102% | viability, T/C [3] 100% | viability, T/C [4] 98.9% | viability, T/C [5] 98.4% | viability, T/C [6] 83.5% | viability, T/C [7] 106% | viability, T/C [8] 95.4% | viability, T/C [9] 98% | viability, T/C [10] 94% | viability, T/C [11] 97.5% | viability, T/C [12] 83.3% | viability, T/C [13] 96.4% | viability, T/C [14] 106% | viability, T/C [15] 94.6% | viability, T/C [16] 89.5% | viability, T/C [17] 99.1% | viability, T/C [18] 80.6% | viability, T/C [19] 100% | viability, T/C [20] 102% | viability, T/C [21] 106% | viability, T/C [22] 101% | viability, T/C [23] 91.8% | viability, T/C [24] 77.5% | viability, T/C [25] 101% | viability, T/C [26] 91% | viability, T/C [27] 92.9% | viability, T/C [28] 87.7% | viability, T/C [29] 86.2% | viability, T/C [30] 80.7% | viability, T/C [31] 87.1% | viability, T/C [32] 91.8% | viability, T/C [33] 86.1% | viability, T/C [34] 87.4% | viability, T/C [35] 82.4% | viability, T/C [36] 62.4%
> 10 µM: IC50 (second compound 0.0316 µM) | IC50 (second compound 0.1 µM) | IC50 (second compound 0.316 µM) | IC50 (second compound 1 µM) | IC50 (second compound 3.16 µM) | IC50 (second compound 10 µM)

CC(=O)O[C@H]1C(=O)[C@@]2(C)[C@H]([C@H](OC(=O)c3ccccc3)[C@]3(O)C[C@H](OC(=O)[C@H](O)[C@@H](NC(=O)c4ccccc4)c4ccccc4)C(C)=C1C3(C)C)[C@]1(OC(C)=O)CO[C@@H]1C[C@@H]2O + CN(C)c1ccc(Nc2c3ccc(NC(=O)CCN4CCCC4)cc3nc3cc(NC(=O)CCN4CCCC4)ccc23)cc1
inactive: viability, T/C [1] 98.5% | viability, T/C [2] 90.7% | viability, T/C [3] 90.4% | viability, T/C [4] 85.6% | viability, T/C [5] 84% | viability, T/C [6] 73.2% | viability, T/C [7] 98.5% | viability, T/C [8] 87.8% | viability, T/C [9] 89.3% | viability, T/C [10] 79.8% | viability, T/C [11] 79.5% | viability, T/C [12] 68.7% | viability, T/C [13] 106% | viability, T/C [14] 96% | viability, T/C [15] 85.5% | viability, T/C [16] 84.5% | viability, T/C [17] 82.6% | viability, T/C [18] 70.1% | viability, T/C [19] 89.7% | viability, T/C [20] 88.4% | viability, T/C [21] 89.8% | viability, T/C [22] 85.5% | viability, T/C [23] 76.3% | viability, T/C [24] 69.8% | viability, T/C [25] 92.8% | viability, T/C [26] 96.7% | viability, T/C [27] 88.7% | viability, T/C [28] 84.3% | viability, T/C [29] 77.4% | viability, T/C [30] 66.3% | viability, T/C [31] 86.9% | viability, T/C [32] 84.8% | viability, T/C [33] 84.5% | viability, T/C [34] 75.8% | viability, T/C [35] 71.2% | viability, T/C [36] 61.9%
> 10 µM: IC50 (second compound 0.0316 µM) | IC50 (second compound 0.1 µM) | IC50 (second compound 0.316 µM) | IC50 (second compound 1 µM) | IC50 (second compound 3.16 µM) | IC50 (second compound 10 µM)

CCCS(=O)(=O)Nc1ccc(F)c(C(=O)c2c[nH]c3ncc(-c4ccc(Cl)cc4)cc23)c1F + CN(C)c1ccc(Nc2c3ccc(NC(=O)CCN4CCCC4)cc3nc3cc(NC(=O)CCN4CCCC4)ccc23)cc1
inactive: viability, T/C [1] 108% | viability, T/C [2] 99.9% | viability, T/C [3] 106% | viability, T/C [4] 106% | viability, T/C [5] 122% | viability, T/C [6] 68.1% | viability, T/C [7] 103% | viability, T/C [8] 94.5% | viability, T/C [9] 104% | viability, T/C [10] 109% | viability, T/C [11] 111% | viability, T/C [12] 65.9% | viability, T/C [13] 105% | viability, T/C [14] 108% | viability, T/C [15] 101% | viability, T/C [16] 106% | viability, T/C [17] 123% | viability, T/C [18] 68.3% | viability, T/C [19] 98.7% | viability, T/C [20] 99.3% | viability, T/C [21] 107% | viability, T/C [22] 119% | viability, T/C [23] 121% | viability, T/C [24] 64.2% | viability, T/C [25] 91% | viability, T/C [26] 103% | viability, T/C [27] 94.5% | viability, T/C [28] 100% | viability, T/C [29] 110% | viability, T/C [30] 72.4% | viability, T/C [31] 86.6% | viability, T/C [32] 89.3% | viability, T/C [33] 90.9% | viability, T/C [34] 91.2% | viability, T/C [35] 90% | viability, T/C [36] 67.5%
> 10 µM: IC50 (second compound 0.0316 µM) | IC50 (second compound 0.1 µM) | IC50 (second compound 0.316 µM) | IC50 (second compound 1 µM) | IC50 (second compound 3.16 µM) | IC50 (second compound 10 µM)

Nc1ccn(C2OC(CO)C(O)C2(F)F)c(=O)n1 (stereo not given) + CN(C)c1ccc(Nc2c3ccc(NC(=O)CCN4CCCC4)cc3nc3cc(NC(=O)CCN4CCCC4)ccc23)cc1
inactive: viability, T/C [1] 88.9% | viability, T/C [2] 81% | viability, T/C [3] 74.9% | viability, T/C [4] 74.2% | viability, T/C [5] 72.9% | viability, T/C [6] 62.7% | viability, T/C [7] 97.5% | viability, T/C [8] 82.7% | viability, T/C [9] 78.3% | viability, T/C [10] 74.1% | viability, T/C [11] 69.7% | viability, T/C [12] 55.3% | viability, T/C [13] 94.4% | viability, T/C [14] 83.2% | viability, T/C [15] 72.7% | viability, T/C [16] 69.3% | viability, T/C [17] 68.9% | viability, T/C [18] 59.8% | viability, T/C [19] 87.3% | viability, T/C [20] 78.8% | viability, T/C [21] 75% | viability, T/C [22] 70.4% | viability, T/C [23] 70.5% | viability, T/C [24] 57.5% | viability, T/C [25] 76.8% | viability, T/C [26] 78% | viability, T/C [27] 71.4% | viability, T/C [28] 65.2% | viability, T/C [29] 65.5% | viability, T/C [30] 54.4% | viability, T/C [31] 83.1% | viability, T/C [32] 66.2% | viability, T/C [33] 66.3% | viability, T/C [34] 63.6% | viability, T/C [35] 57.6% | viability, T/C [36] 48.2%
> 10 µM: IC50 (second compound 0.0316 µM) | IC50 (second compound 0.1 µM) | IC50 (second compound 0.316 µM) | IC50 (second compound 1 µM) | IC50 (second compound 3.16 µM) | IC50 (second compound 10 µM)

O=c1[nH]cc(F)c(=O)[nH]1 + CN(C)c1ccc(Nc2c3ccc(NC(=O)CCN4CCCC4)cc3nc3cc(NC(=O)CCN4CCCC4)ccc23)cc1
> 10 µM: IC50 (second compound 0.0316 µM) | IC50 (second compound 0.1 µM) | IC50 (second compound 0.316 µM) | IC50 (second compound 1 µM) | IC50 (second compound 3.16 µM) | IC50 (second compound 10 µM)
inactive: viability, T/C [1] 101% | viability, T/C [2] 90.5% | viability, T/C [3] 90.5% | viability, T/C [4] 92.6% | viability, T/C [5] 95.5% | viability, T/C [6] 97.5% | viability, T/C [7] 103% | viability, T/C [8] 90.1% | viability, T/C [9] 94.9% | viability, T/C [10] 83.8% | viability, T/C [11] 99.8% | viability, T/C [12] 91.5% | viability, T/C [13] 106% | viability, T/C [14] 100% | viability, T/C [15] 99.7% | viability, T/C [16] 92.8% | viability, T/C [17] 94.7% | viability, T/C [18] 94.5% | viability, T/C [19] 103% | viability, T/C [20] 96.9% | viability, T/C [21] 98% | viability, T/C [22] 96.9% | viability, T/C [23] 97.7% | viability, T/C [24] 92.5% | viability, T/C [25] 92.1% | viability, T/C [26] 100% | viability, T/C [27] 90.3% | viability, T/C [28] 88.3% | viability, T/C [29] 90.5% | viability, T/C [30] 91% | viability, T/C [31] 87.8% | viability, T/C [32] 92.6% | viability, T/C [33] 78% | viability, T/C [34] 82.4% | viability, T/C [35] 85.7% | viability, T/C [36] 83.4%
